# Measured values: patent US12415830B2, “Steroid compound, and use thereof and preparation method therefor” (Chengdu Kanghong Pharmaceutical Co Ltd, priority 2019, dated 2025)
# Test system: mice
# Assay: Light-dark shuttle box anti-anxiety test
# Type: in vivo
# Conditions: 5 consecutive days, 30 min after last administration, male mice
# Description: 57.3.1 light-dark shuttle box: The light-dark shuttle box is a standard and well characterized assay for anxiolytic effects of the exemplary compounds. Mice naturally avoid the light of the box because light makes mice evasive and stressful, but the exploration habit of mice also prompts mice to try to explore a bright box. Increased time on the light of the box by the exemplary compounds reflects an anxiolytic effect on mice. The experimental mice were randomly divided into 5 groups based on weight, including a negative control group, two different dosage groups (1 mg/kg and 3 mg/kg) of the tested compounds (KH004 or KH022), and every group had 10 male mice. Mice were administered with corresponding dosage for tested intervention for 5 consecutive days in advance, and conducting anxiolytic experiments after 30 min of the last administration. The retention time in the light box was selected as the main index for evaluating the anti-anxiety effect of KH004 and KH022.
Structure (SMILES),The retention time in the light box (1.0 mg/kg),The retention time in the light box (3.0 mg/kg)
C[C@@]1(O)CC[C@@]2(C)[C@@H](CC[C@@H]3[C@@H]2CC[C@]2(C)[C@@H](C(=O)Cn4ncnn4)CCC[C@@H]32)C1 [KH022],50.00 ± 4.59 %,56.66 ± 7.96 %
C[C@]12CC[C@@H](O)C[C@@H]1CC[C@@H]1[C@@H]2CC[C@]2(C)[C@@H](C(=O)Cn3ncnn3)CCC[C@@H]12 [KH004],50.30 ± 6.89 %,53.91 ± 9.37 %
